Article PMC10973839, “CHF6297: a novel potent and selective p38 MAPK inhibitor with robust anti-inflammatory activity and suitable for inhaled pulmonary administration as dry powder” (Frontiers in Pharmacology, 2024)
Like-named read-outs stand apart in the source and are kept apart here.

Tested on: IL-1β-induced neutrophil influx and IL-6 in BALF
Assay: IL-1β-induced neutrophilia and IL-6 accumulation in BALF of rats
Type: in vivo
Settings: for ED50: Rattus norvegicus, Neutrophil
Procedure: IL-1β is a potent proinflammatory agent that markedly induces lung neutrophilia when administered intratracheally in rats, and p38α MAPK is involved in IL-1β signaling in lung cells ([Laporte et al., 2000]). The dose–response curve and anti-inflammatory duration of action studies were carried out by delivering CHF6297 intratracheally through the DP-4M PennCentury insufflator as micronized dry powder (blended with lactose) at the doses of 0.1, 0.35, and 1 mg/kg, 1 h or 24 h before IL-1β challenge. Four hours after IL-1β challenge, BALF was collected for cell counting and IL-6 quantification.
For the experimental studies performed with IL-1β challenge, the first aliquot of BALF was centrifuged separately: the resulting supernatant was frozen at −80°C for IL-6 ELISA analysis.
Frozen cell-free BALFs were analyzed using an ELISA kit purchased from R&D Systems (Rat IL-6 ELISA Kit; Cat. No. SR6000B, Lot. 307537), according to the manufacturer’s instructions.

[1] = 0.35 mg/kg i.t., 24 h before IL-1β
[2] = 1 mg/kg i.t., 24 h before IL-1β

C[C@H]1CCCCN1c1nnc2ccc(O[C@@H]3CC[C@H](NC(=O)Nc4cc(C(C)(C)C)nn4-c4cnn(CCN(C)C)c4)c4ccccc43)cn12 [CHF6297]
IL-6 concentration in BAL fluid (0.1 mg/kg i.t., 1 h before IL-1β): 791 ± 131 pg/mL
IL-6 concentration in BAL fluid (0.35 mg/kg i.t., 1 h before IL-1β): 302 ± 58.34 pg/mL
IL-6 concentration in BAL fluid [1]: 1,101 ± 253 pg/mL
neutrophils in BALF [1]: 5.5 × 10^6 ± 814 neutrophils
neutrophils in BALF (1 mg/kg i.t. dry powder, 1 h before IL-1β): 2.3 × 10^6 ± 234 neutrophils
IL-6 concentration in BAL fluid (1 mg/kg i.t., 1 h before IL-1β): 404 ± 108 pg/mL
IL-6 concentration in BAL fluid [2]: 337 ± 84 pg/mL
neutrophils in BALF [2]: 2.98 × 10^6 ± 62 neutrophils
ED50 (i.t. dry powder, 1 h before IL-1β, read-out: ED50, IL-1β-induced neutrophil influx): 0.22 mg/kg
ED50 (i.t., IL-1β challenge, read-out: ED50, increase in IL-6 levels in BALF): 0.82 mg/kg
